Source: US8026243B2, “[4,5′]Bipyrimidinyl-6,4′-diamine derivatives as protein kinase inhibitors” (Novartis AG, priority 2006, dated 2011)

These compounds were tested against T1, Ba/F3-TEL-FGFR3 cells (Homo sapiens, UniProt P22607) (assay: FGFR3 cellular assay: proliferation of transformed Ba/F3-TEL-FGFR3 cells (AlamarBlue)). Settings: 48 hours incubation, class symbols.
T1 construct: fused on or other part: The N-terminal oligomerising part of TEL (ETV6) is fused before the intracellular kinase part of FGFR3; P41212 (Transcription factor ETV6)
Format: cell-based
Procedure: Compounds of the invention are tested for their ability to inhibit transformed Ba/F3-TEL-FGFR3 cells proliferation, which is dependent on FGFR3 cellular kinase activity. Ba/F3-TEL-FGFR3 are cultured up to 800,000 cells/mL in suspension, with RPMI 1640 supplemented with 10% fetal bovine serum as the culture medium. Cells are dispensed into 384-well format plate at 5000 cell/well in […], culture medium. Compounds of the invention are dissolved and diluted in dimethylsulfoxide (DMSO). Twelve points 1:3 serial dilutions are made into DMSO to create concentrations gradient ranging typically from 10 mM to 0.05 μM. Cells are added with 50 nL of diluted compounds and incubated for 48 hours in cell culture incubator. AlamarBlue® (TREK Diagnostic Systems), which can be used to monitor the reducing environment created by proliferating cells, are added to cells at final concentration of 10%. After additional four hours of incubation in a 37° C. cell culture incubator, fluorescence signals from reduced AlamarBlue® (Excitation at 530 nm, Emission at 580 nm) are quantified on Analyst GT (Molecular Devices Corp.). IC50 values are calculated by linear regression analysis of the percentage inhibition of each compound at 12 concentrations.

T1 sequence (P22607 whole entry, change not shown, the tested form may be a part): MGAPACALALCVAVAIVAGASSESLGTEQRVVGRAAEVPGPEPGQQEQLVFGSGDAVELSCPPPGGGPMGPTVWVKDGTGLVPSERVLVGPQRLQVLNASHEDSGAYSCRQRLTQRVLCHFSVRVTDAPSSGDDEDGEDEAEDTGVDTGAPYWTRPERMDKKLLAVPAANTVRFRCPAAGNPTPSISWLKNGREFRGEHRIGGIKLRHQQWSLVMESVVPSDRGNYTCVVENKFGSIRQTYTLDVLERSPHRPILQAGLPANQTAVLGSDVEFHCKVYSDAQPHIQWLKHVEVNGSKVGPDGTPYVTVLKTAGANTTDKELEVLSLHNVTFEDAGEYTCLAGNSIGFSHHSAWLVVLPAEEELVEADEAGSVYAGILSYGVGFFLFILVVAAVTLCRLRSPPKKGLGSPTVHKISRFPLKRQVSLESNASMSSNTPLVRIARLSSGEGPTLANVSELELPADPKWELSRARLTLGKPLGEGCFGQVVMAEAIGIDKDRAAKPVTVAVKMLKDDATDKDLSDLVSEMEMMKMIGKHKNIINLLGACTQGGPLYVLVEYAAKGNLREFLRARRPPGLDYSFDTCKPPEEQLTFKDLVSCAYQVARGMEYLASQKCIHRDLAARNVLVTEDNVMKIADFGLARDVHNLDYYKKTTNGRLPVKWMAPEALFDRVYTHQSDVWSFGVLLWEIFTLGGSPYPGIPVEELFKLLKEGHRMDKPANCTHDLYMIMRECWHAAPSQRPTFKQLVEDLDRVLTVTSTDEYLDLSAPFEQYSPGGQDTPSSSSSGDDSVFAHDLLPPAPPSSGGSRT

Row | GI50 | SMILES
1 | < 100 nM | COc1cc(OC)c(Cl)c(Nc2ncncc2-c2cc(Nc3ccc(CN4CCN(C(=O)N(C)C)CC4)cn3)ncn2)c1Cl [Compound 19, 4-{6-[4′-(2,6-Dichloro-3,5-dimethoxy-phenylamino)-[4,5′]bipyrimidinyl-6-ylamino]-pyridin-3-ylmethyl}-piperazine-1-carboxylic acid dimethyl-amide]
2 | < 100 nM | CNC(=O)N1CCN(Cc2ccc(Nc3cc(-c4cncnc4Nc4c(Cl)c(OC)cc(OC)c4Cl)ncn3)nc2)CC1 [Compound 20, 4-{6-[4′-(2,6-Dichloro-3,5-dimethoxy-phenylamino)-[4,5′]bipyrimidinyl-6-ylamino]-pyridin-3-ylmethyl}-piperazine-1-carboxylic acid methylamide]
3 | 250 to 500 nM | COc1cc(OC)c(Cl)c(Nc2ncncc2-c2cc(Nc3cncc(CN4CCOCC4)c3)ncn2)c1Cl [Compound 21, N4′-(2,6-Dichloro-3,5-dimethoxy-phenyl)-N6-(5-morpholin-4-ylmethyl-pyridin-3-yl)-[4,5′]bipyrimidinyl-6,4′-diamine]
4 | < 100 nM | COc1cc(OC)c(Cl)c(Nc2ncncc2-c2cc(Nc3ccc(CN4CCCCC4)cn3)ncn2)c1Cl [Compound 22, N4′-(2,6-Dichloro-3,5-dimethoxy-phenyl)-N6-(5-piperidin-1-ylmethyl-pyridin-2-yl)-[4,5′]bipyrimidinyl-6,4′-diamine]
5 | 250 to 500 nM | COC(=O)c1cc(OC)c(Cl)c(Nc2ncncc2-c2cc(N)ncn2)c1Cl [Compound 23, 3-(6-Amino-[4,5′]bipyrimidinyl-4′-ylamino)-2,4-dichloro-5-methoxy-benzoic acid methyl ester]
6 | < 100 nM | CCNC(=O)c1cc(OC)c(Cl)c(Nc2ncncc2-c2cc(Nc3ccc(CN4CCOCC4)cn3)ncn2)c1Cl [Compound 24, 2,4-Dichloro-N-ethyl-5-methoxy-3-[6-(5-morpholin-4-ylmethyl-pyridin-2-ylamino)-[4,5′]bipyrimidinyl-4′-ylamino]-benzamide]
7 | < 100 nM | CCONC(=O)c1cc(OC)c(Cl)c(Nc2ncncc2-c2cc(Nc3ccc(CN4CCOCC4)cn3)ncn2)c1Cl [Compound 25, 2,4-Dichloro-N-ethoxy-5-methoxy-3-[6-(5-morpholin-4-ylmethyl-pyridin-2-ylamino)-[4,5′]bipyrimidinyl-4′-ylamino]-benzamide]
8 | 250 to 500 nM | COc1cc(C(N)=O)c(Cl)c(Nc2ncncc2-c2cc(Nc3ccc(CN4CCOCC4)cn3)ncn2)c1Cl [Compound 26, 2,4-Dichloro-5-methoxy-3-[6-(5-morpholin-4-yl-methyl-pyridin-2-ylamino)-[4,5′]bipyrimidinyl-4′-ylamino]-benzamide]
9 | < 100 nM | COC(=O)c1cc(OC)c(Cl)c(Nc2ncncc2-c2cc(Nc3ccc(CN4CCOCC4)cn3)ncn2)c1Cl [Compound 27, 2,4-Dichloro-5-methoxy-3-[6-(5-morpholin-4-ylmethyl-pyridin-2-ylamino)-[4,5′]bipyrimidinyl-4′-ylamino]-benzoic acid methyl ester]
10 | < 100 nM | CCN(CC)Cc1ccc(Nc2cc(-c3cncnc3Nc3c(Cl)c(OC)cc(OC)c3Cl)ncn2)nc1 [Compound 28, N4′-(2,6-Dichloro-3,5-dimethoxy-phenyl)-N6-(5-diethylamino-methyl-pyridin-2-yl)-[4,5′]bipyrimidinyl-6,4′-diamine]
11 | < 100 nM | COc1cc(OC)c(Cl)c(Nc2ncncc2-c2cc(Nc3cccc(C(C)O)c3)ncn2)c1Cl (centres unmarked) [Compound 29, 1-{3-[4′-(2,6-Dichloro-3,5-dimethoxy-phenylamino)-[4,5′]bipyrimidinyl-6-ylamino]-phenyl}-ethanol]

Second part, the compound before the results:

Row | SMILES | GI50
12 | COc1cc(OC)c(Cl)c(Nc2ncncc2-c2cc(N)ncn2)c1Cl [Compound 1, N4′-(2,6-Dichloro-3,5-dimethoxy-phenyl)-[4,5′]bipyrimidinyl-6,4′-diamine] | 100 to 250 nM
13 | COc1cc(OC)c(Cl)c(Nc2ncncc2-c2cc(Nc3ccc(CN4CCCC4)cn3)ncn2)c1Cl [Compound 2, N4′-(2,6-Dichloro-3,5-dimethoxy-phenyl)-N6-(5-pyrrolidin-1-ylmethyl-pyridin-2-yl)-[4,5′]bipyrimidinyl-6,4′-diamine] | < 100 nM
14 | COc1cc(OC)c(Cl)c(Nc2ncncc2-c2cc(Nc3ccc(CN4CCN(C)CC4)cn3)ncn2)c1Cl [Compound 3, N4′-(2,6-Dichloro-3,5-dimethoxy-phenyl)-N6-[5-(4-methyl-piperazin-1-ylmethyl)-pyridin-2-yl]-[4,5′]bipyrimidinyl-6,4′-diamine] | < 100 nM
15 | COc1cc(OC)c(Cl)c(Nc2ncncc2-c2cc(Nc3ccc(CN4CCOCC4)cn3)ncn2)c1Cl [Compound 4, N4′-(2,6-Dichloro-3,5-dimethoxy-phenyl)-N6-(5-morpholin-4-ylmethyl-pyridin-2-yl)-[4,5′]bipyrimidinyl-6,4′-diamine] | < 100 nM
16 | COc1cc(OC)c(Cl)c(Nc2ncncc2-c2cc(Nc3cc(CN4CCOCC4)ccn3)ncn2)c1Cl [Compound 5, N4′-(2,6-Dichloro-3,5-dimethoxy-phenyl)-N6-(4-morpholin-4-ylmethyl-pyridin-2-yl)-[4,5′]bipyrimidinyl-6,4′-diamine] | < 100 nM
17 | COc1cc(OC)c(Cl)c(Nc2ncncc2-c2cc(Nc3cc(CN4CCN(C)CC4)ccn3)ncn2)c1Cl [Compound 6, N4′-(2,6-Dichloro-3,5-dimethoxy-phenyl)-N6-[4-(4-methyl-piperazin-1-ylmethyl)-pyridin-2-yl]-[4,5′]bipyrimidinyl-6,4′-diamine] | < 100 nM
18 | COc1cc(OC)c(Cl)c(Nc2ncncc2-c2cc(Nc3ccc(CN(C)C)cn3)ncn2)c1Cl [Compound 7, N4′-(2,6-Dichloro-3,5-dimethoxy-phenyl)-N6-(5-dimethylaminomethyl-pyridin-2-yl)-[4,5′]bipyrimidinyl-6,4′-diamine] | < 100 nM
19 | COc1cc(OC)c(Cl)c(Nc2ncncc2-c2cc(NC(=O)NCCN3CCN(C)CC3)ncn2)c1Cl [Compound 8, 1-[4′-(2,6-Dichloro-3,5-dimethoxy-phenylamino)-[4,5′]bipyrimidinyl-6-yl]-3-[2-(4-methyl-piperazin-1-yl)-ethyl]-urea] | 100 to 250 nM
20 | COc1cc(OC)c(Cl)c(Nc2ncncc2-c2cc(NC(=O)NCCN3CCOCC3)ncn2)c1Cl [Compound 9, 1-[4′-(2,6-Dichloro-3,5-dimethoxy-phenylamino)-[4,5′]bipyrimidinyl-6-yl]-3-(2-morpholin-4-yl-ethyl)-urea] | < 100 nM
21 | CCN1CCN(c2ccc(Nc3cc(-c4cncnc4Nc4c(Cl)c(OC)cc(OC)c4Cl)ncn3)cc2)CC1 [Compound 10, N4′-(2,6-Dichloro-3,5-dimethoxy-phenyl)-N6-[4-(4-ethyl-piperazin-1-yl)-phenyl]-[4,5′]bipyrimidinyl-6,4′-diamine] | < 100 nM
22 | COc1cc(OC)c(Cl)c(Nc2ncncc2-c2cc(Nc3ccc(N4CCOCC4)cc3)ncn2)c1Cl [Compound 11, N4′-(2,6-Dichloro-3,5-dimethoxy-phenyl)-N6-(4-morpholin-4-yl-phenyl)-[4,5′]bipyrimidinyl-6,4′-diamine] | < 100 nM
23 | COc1cc(OC)c(Cl)c(Nc2ncncc2-c2cc(NCCCN3CCOCC3)ncn2)c1Cl [Compound 12, N4′-(2,6-Dichloro-3,5-dimethoxy-phenyl)-N6-(3-morpholin-4-yl-propyl)-[4,5′]bipyrimidinyl-6,4′-diamine] | 100 to 250 nM
24 | COc1cc(OC)c(Cl)c(Nc2ncncc2-c2cc(NCCCCN(C)C)ncn2)c1Cl [Compound 13, N4′-(2,6-Dichloro-3,5-dimethoxy-phenyl)-N6-(4-dimethylamino-butyl)-[4,5′]bipyrimidinyl-6,4′-diamine] | 250 to 500 nM
25 | COc1cc(OC)c(Cl)c(Nc2ncncc2-c2cc(NCCN3CCN(C)CC3)ncn2)c1Cl [Compound 14, N4′-(2,6-Dichloro-3,5-dimethoxy-phenyl)-N6-[2-(4-methyl-piperazin-1-yl)-ethyl]-[4,5′]bipyrimidinyl-6,4′-diamine] | 250 to 500 nM
26 | COc1cc(OC)c(Cl)c(Nc2ncncc2-c2cc(Nc3ccc(CN4CCN(C(N)=O)CC4)cn3)ncn2)c1Cl [Compound 15, 4-{6-[4′-(2,6-Dichloro-3,5-dimethoxy-phenylamino)-[4,5′]bipyrimidinyl-6-ylamino]-pyridin-3-ylmethyl}-piperazine-1-carboxylic acid amide] | < 100 nM
27 | COc1cc(OC)c(Cl)c(Nc2ncncc2-c2cc(Nc3ccc(CN4CCN(C(C)=O)CC4)cn3)ncn2)c1Cl [Compound 16, 1-(4-{6-[4′-(2,6-Dichloro-3,5-dimethoxy-phenylamino)-[4,5′]bipyrimidinyl-6-ylamino]-pyridin-3-ylmethyl}-piperazin-1-yl)-ethanone] | < 100 nM
28 | CCN(CC)CCOc1ccc(Nc2cc(-c3cncnc3Nc3c(Cl)c(OC)cc(OC)c3Cl)ncn2)cc1 [Compound 17, N4′-(2,6-Dichloro-3,5-dimethoxy-phenyl)-N6-[4-(2-diethylamino-ethoxy)-phenyl]-[4,5′]bipyrimidinyl-6,4′-diamine] | < 100 nM
29 | COc1cc(OC)c(Cl)c(Nc2ncncc2-c2cc(Nc3ccc(CCN4CCOCC4)cn3)ncn2)c1Cl [Compound 18, N4′-(2,6-Dichloro-3,5-dimethoxy-phenyl)-N6-[5-(2-morpholin-4-yl-ethyl)-pyridin-2-yl]-[4,5′]bipyrimidinyl-6,4′-diamine] | < 100 nM
